± gives the expanded uncertainty stated by the source.

For the data set the following is noted: 298 K; 101.33 kPa; Crystal; SIGMATEST 2.069 (Foerster) testing instrument - complex impedance measurements.

For `[Ag]` [silver], the electrical conductivity came to 6.107e+07 ± 610000 S/m.

For the origin of these results see the NIST ThermoML archive (doi:10.1016/j.tca.2019.01.016).
